How the values were obtained:
Details in all cases: Compound concentration 1000.0 nM
[1] = target: Calcium/calmodulin-dependent protein kinase type 1G (Homo sapiens) (UniProt Q96NX5)
[2] = target: T1, Tyrosine-protein kinase ZAP-70 (Homo sapiens) (UniProt P43403)
T1 sequence (whole entry): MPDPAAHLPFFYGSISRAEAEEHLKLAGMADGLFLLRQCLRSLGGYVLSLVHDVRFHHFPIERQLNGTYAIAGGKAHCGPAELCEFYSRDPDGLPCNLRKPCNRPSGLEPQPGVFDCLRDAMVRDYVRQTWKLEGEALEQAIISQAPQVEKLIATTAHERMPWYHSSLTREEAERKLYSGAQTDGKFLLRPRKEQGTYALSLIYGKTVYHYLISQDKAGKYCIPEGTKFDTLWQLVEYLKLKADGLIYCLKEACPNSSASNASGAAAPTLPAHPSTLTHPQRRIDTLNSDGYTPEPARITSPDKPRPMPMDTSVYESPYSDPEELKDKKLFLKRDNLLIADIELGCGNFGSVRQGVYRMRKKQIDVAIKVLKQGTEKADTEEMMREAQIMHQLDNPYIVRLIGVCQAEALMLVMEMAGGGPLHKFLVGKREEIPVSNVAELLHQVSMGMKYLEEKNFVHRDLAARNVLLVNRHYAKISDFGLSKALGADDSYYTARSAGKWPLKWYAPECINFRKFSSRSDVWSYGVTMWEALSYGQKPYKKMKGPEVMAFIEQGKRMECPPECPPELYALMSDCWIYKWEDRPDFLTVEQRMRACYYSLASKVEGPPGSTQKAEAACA

[3] = target: Dual specificity mitogen-activated protein kinase kinase 3 (Homo sapiens) (UniProt P46734)
[4] = target: T2, Dual specificity mitogen-activated protein kinase kinase 6 (Homo sapiens) (UniProt P52564)
T2 sequence (whole entry): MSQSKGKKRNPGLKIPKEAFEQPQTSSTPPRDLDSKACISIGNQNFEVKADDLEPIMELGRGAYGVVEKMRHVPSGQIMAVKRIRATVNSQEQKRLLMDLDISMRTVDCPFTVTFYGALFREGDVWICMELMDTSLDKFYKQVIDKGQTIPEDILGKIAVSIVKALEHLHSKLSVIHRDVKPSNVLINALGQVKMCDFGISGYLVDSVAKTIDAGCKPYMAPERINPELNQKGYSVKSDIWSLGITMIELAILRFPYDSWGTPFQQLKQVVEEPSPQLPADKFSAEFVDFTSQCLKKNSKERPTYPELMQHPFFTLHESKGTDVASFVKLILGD

[5] = target: T3, Calcium/calmodulin-dependent protein kinase type IV (Homo sapiens) (UniProt Q16566)
T3 sequence (whole entry): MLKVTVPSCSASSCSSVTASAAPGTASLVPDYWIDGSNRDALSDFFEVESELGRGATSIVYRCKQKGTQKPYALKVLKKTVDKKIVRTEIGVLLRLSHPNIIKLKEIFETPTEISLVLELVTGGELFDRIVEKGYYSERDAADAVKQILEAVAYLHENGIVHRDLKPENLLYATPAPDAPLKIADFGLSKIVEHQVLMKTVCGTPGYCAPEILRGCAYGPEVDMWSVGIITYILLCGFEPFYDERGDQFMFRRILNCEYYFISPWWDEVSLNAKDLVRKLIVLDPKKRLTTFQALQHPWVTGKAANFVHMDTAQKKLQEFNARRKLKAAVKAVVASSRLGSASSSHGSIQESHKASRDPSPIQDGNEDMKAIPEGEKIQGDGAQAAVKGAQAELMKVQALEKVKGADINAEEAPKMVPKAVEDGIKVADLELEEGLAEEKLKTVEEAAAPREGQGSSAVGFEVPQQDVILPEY

[6] = target: T4, Aurora kinase A (Homo sapiens) (UniProt O14965)
T4 sequence (whole entry): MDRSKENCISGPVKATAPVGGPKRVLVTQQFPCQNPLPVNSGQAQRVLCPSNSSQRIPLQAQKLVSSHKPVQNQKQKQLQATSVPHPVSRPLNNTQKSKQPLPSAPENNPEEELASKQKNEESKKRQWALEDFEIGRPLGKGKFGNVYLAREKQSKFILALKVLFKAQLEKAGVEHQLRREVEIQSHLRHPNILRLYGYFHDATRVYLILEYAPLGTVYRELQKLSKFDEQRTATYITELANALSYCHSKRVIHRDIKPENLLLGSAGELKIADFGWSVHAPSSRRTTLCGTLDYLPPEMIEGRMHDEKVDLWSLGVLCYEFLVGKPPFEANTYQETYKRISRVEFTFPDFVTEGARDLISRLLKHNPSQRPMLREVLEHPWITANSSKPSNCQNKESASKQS

[7] = target: LIM domain kinase 2 (Homo sapiens) (UniProt P53671)
[8] = target: Ribosomal protein S6 kinase alpha-4 (Homo sapiens) (UniProt O75676)
[9] = target: Serine/threonine-protein kinase/endoribonuclease IRE1 (Homo sapiens) (UniProt O75460)
[10] = target: Serine/threonine-protein kinase TAO1 (Homo sapiens) (UniProt Q7L7X3)
[11] = target: Serine/threonine-protein kinase VRK2 (Homo sapiens) (UniProt Q86Y07)
[12] = target: Calcium/calmodulin-dependent protein kinase kinase 2 (Homo sapiens) (UniProt Q96RR4)
[13] = tested on: Tyrosine-protein kinase ABL1 (Homo sapiens), P00519 [H396P]

Measured: residual activity

Calcium/calmodulin-dependent protein kinase kinase 2 (Homo sapiens), sequence (Q96RR4 2-588 limits assumed): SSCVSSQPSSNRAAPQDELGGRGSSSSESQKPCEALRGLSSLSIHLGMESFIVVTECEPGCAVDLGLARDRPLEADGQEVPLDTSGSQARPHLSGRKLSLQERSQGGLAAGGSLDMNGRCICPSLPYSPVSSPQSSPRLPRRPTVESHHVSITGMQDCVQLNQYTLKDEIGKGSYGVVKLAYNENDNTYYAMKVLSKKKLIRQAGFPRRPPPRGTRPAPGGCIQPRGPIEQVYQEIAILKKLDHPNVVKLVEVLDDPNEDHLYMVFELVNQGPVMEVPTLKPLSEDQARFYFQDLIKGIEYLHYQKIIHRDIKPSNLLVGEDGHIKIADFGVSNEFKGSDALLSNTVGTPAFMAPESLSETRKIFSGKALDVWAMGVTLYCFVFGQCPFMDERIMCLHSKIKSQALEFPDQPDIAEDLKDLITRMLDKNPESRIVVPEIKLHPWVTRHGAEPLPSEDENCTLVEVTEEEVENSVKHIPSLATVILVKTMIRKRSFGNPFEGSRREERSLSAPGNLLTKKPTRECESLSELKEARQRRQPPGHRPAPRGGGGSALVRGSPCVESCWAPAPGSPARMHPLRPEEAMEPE
Dual specificity mitogen-activated protein kinase kinase 3 (Homo sapiens), sequence (P46734 whole entry): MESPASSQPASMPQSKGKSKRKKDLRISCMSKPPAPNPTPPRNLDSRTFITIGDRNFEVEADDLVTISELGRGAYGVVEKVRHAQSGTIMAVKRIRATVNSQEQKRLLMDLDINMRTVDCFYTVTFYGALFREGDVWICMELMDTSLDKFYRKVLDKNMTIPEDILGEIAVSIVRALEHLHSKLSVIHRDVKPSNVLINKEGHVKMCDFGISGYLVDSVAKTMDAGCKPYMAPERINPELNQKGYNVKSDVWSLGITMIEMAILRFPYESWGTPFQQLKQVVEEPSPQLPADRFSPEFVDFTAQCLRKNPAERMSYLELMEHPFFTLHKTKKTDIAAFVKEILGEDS
LIM domain kinase 2 (Homo sapiens), sequence (P53671 whole entry, looked up, the tested form may be a part): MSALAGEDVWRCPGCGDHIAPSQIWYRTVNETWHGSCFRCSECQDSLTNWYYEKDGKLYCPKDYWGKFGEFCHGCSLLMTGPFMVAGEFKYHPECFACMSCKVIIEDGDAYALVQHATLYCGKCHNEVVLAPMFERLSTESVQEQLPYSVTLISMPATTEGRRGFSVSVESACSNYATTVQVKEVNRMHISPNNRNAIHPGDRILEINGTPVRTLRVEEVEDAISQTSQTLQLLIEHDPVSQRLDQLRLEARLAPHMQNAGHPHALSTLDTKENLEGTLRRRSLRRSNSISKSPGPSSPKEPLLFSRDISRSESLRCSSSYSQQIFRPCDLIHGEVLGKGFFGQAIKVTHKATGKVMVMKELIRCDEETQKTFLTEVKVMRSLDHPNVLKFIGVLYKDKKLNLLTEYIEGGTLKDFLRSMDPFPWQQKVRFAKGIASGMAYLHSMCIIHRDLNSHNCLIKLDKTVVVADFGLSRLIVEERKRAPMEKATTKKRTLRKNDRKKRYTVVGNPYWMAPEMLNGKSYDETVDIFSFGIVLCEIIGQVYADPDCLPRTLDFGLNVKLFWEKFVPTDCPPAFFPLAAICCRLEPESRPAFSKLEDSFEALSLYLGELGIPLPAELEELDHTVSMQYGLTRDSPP
Serine/threonine-protein kinase TAO1 (Homo sapiens), sequence (Q7L7X3 whole entry): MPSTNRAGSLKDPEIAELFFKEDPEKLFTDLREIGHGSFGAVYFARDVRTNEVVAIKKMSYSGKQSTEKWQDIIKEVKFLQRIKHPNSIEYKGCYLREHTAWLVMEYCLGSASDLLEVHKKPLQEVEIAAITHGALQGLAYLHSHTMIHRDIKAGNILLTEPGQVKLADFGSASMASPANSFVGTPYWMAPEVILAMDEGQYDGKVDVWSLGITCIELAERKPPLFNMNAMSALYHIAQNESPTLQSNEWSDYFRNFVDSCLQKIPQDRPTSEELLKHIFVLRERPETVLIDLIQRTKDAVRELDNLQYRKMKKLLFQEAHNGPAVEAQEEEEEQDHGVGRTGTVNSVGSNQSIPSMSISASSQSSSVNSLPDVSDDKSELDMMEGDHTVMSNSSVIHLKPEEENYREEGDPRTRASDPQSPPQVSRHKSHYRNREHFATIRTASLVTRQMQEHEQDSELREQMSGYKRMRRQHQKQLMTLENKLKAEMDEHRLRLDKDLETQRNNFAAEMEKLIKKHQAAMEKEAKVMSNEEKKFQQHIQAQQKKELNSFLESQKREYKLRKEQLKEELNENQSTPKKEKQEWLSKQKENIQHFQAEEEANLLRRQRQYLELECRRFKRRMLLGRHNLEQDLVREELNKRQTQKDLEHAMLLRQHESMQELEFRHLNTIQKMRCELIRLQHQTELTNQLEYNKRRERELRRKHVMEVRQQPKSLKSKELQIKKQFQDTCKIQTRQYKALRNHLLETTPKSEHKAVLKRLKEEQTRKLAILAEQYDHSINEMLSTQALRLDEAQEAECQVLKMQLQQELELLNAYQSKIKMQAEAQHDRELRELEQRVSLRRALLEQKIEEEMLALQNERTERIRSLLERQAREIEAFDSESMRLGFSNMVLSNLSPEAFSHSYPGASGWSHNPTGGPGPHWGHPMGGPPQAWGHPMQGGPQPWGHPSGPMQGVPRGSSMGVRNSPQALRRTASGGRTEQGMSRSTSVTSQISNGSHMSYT
Calcium/calmodulin-dependent protein kinase type 1G (Homo sapiens), sequence (Q96NX5 whole entry): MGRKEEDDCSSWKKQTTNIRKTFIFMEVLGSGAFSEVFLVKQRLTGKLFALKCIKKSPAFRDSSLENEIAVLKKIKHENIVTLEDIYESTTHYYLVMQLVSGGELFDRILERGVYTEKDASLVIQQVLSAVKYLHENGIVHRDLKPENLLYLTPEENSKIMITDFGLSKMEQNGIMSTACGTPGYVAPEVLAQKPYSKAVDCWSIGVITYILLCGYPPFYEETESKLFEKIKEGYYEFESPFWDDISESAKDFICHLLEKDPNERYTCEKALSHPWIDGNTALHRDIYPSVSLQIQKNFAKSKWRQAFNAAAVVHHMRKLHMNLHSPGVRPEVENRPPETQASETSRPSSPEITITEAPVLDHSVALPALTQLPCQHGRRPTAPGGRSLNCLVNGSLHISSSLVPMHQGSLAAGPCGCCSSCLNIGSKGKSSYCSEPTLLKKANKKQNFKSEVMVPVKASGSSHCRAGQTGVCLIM
Ribosomal protein S6 kinase alpha-4 (Homo sapiens), sequence (O75676 whole entry, looked up): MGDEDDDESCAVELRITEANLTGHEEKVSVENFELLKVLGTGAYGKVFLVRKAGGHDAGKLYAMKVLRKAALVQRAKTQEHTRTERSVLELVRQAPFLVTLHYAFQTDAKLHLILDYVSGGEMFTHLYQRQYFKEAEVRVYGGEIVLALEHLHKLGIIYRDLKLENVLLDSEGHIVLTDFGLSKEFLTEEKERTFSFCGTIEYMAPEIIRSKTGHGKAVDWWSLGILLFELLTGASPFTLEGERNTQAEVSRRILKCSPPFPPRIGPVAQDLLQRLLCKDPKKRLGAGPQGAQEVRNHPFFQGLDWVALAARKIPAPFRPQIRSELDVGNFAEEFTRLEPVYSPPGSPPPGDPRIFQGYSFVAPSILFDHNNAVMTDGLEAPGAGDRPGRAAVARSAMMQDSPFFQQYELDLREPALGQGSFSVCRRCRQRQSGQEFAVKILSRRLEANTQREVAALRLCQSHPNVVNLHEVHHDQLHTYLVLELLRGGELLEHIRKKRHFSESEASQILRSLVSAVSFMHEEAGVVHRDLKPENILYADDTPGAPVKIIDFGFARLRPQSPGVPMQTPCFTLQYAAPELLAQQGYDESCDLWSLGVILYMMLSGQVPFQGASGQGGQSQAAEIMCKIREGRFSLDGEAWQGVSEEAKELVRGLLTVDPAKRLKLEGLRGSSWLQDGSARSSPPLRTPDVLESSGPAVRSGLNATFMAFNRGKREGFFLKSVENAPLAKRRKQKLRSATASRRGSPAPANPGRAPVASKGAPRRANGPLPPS
Serine/threonine-protein kinase/endoribonuclease IRE1 (Homo sapiens), sequence (O75460 19-977 limits assumed): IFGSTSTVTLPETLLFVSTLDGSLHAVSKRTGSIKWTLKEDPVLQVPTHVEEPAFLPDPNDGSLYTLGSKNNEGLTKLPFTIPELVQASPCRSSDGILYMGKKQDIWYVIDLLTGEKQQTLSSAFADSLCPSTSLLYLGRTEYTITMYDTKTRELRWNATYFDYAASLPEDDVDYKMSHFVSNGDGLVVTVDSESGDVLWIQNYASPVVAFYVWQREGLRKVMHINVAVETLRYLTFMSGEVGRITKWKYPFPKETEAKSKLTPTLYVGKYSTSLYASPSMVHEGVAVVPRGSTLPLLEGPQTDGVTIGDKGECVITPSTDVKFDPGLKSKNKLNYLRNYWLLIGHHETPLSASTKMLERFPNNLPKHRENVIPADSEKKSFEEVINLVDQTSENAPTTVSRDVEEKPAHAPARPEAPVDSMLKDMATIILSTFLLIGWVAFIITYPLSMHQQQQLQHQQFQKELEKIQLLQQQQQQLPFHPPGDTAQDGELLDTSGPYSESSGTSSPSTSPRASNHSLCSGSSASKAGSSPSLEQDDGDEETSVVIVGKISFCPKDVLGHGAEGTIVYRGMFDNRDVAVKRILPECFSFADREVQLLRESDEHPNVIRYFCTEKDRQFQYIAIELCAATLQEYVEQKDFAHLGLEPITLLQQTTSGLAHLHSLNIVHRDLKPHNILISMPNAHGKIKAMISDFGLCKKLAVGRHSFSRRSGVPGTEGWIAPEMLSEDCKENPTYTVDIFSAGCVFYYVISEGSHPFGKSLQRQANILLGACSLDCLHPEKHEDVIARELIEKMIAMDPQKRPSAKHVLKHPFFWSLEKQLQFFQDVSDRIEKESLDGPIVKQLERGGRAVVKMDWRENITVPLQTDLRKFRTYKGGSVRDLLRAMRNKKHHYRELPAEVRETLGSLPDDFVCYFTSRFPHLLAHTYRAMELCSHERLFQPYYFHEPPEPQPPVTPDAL

CC1=C(C#N)C(c2ccc3c(c2)c(NC(=O)c2ccccc2C)nn3C)C(C#N)=C(C)N1 [BAY-974]
inactive: [1] 99% | [2] 90% | [3] 91% | [4] 95% | [5] 70% | [6] 61% | [7] 99% | [8] 89% | [9] 84% | [10] 100% | [11] 72% | [12] 100% | [13] 82%

CCc1ccccc1C(=O)Nc1n[nH]c2c(C)c(F)c(C3C(C#N)=C(C)N(C)C(C)=C3C#N)cc12 [BAY-3827]
inactive: [1] 90% | [2] 100% | [3] 97% | [4] 98% | [5] 56% | [6] 51% | [7] 99% | [8] 100% | [9] 70% | [10] 100% | [11] 100% | [12] 95% | [13] 97%

From ChEMBL document CHEMBL4507319 (2021)
